Consider 18 compounds from patent US20230212549A1, “COMPOUNDS COMPRISING A […] LIGAND AND USE THEREOF” (priority 2021, published 2023).

Numbered stars: 1 amine (or outer) side, 2 acyl side, 3 side chain; on linkers, the order of the positions; unused ones are H or OH. Bridge positions count the residues as written; N and C are the ends. Square brackets hold non-standard residues; d marks the D form. Peptide text beside a SMILES is read from it. * marks the point of attachment. X32 = O=C(O)CN1CCN(CC(=O)O)CCN(CC(=O)NCc2cc(C[*:1])cc(C[*:2])c2)CCN(CC(=O)O)CC1; DOTA = O=C(O)CN1CCN(CC(=O)O)CCN(CC(=O)*)CCN(CC(=O)O)CC1; Pro(trans-4-F) = O=C(O)[C@@H]1C[C@@H](F)CN1; mXylylene = c1cc(C[*:1])cc(C[*:2])c1; Pyrazinecarbonyl = O=C(c1cnccn1)*; NMeF = CN[C@@H](Cc1ccccc1)C(=O)O; NMeE = CN[C@@H](CCC(=O)O)C(=O)O; Orn = NCCC[C@H](N)C(=O)O; Hexanoyl = CCCCCC(=O)*; Ahx = NCCCCCC(=O)O A value given as a limit tells only on which side of the number the result lay.

The target in assay [1] is T1, FAP-expressing human WI-38 fibroblasts (Homo sapiens, UniProt Q12884).
T1 construct: FAP-expressing human WI-38 fibroblasts (ECACC) were cultured in EMEM; host or cells: WI-38 human fibroblasts
Briefly: Competitive FACS binding assay. As for the experimental part: Cells were analyzed in an Attune NxT flow cytometer. […] […].
Cells were analyzed in an Attune NxT flow cytometer. […]
(A flow cytometer gives signals particle by particle.)

The target of assay [2] is Human recombinant FAP (Homo sapiens, UniProt Q12884). The assay can be described thus: FRET-based FAP protease activity assay. Also on record: purchased R&D systems 3715-SE. The settings on record: 37° C.; for IC50: pIC50 Category (Activity). Type of assay: biochemical.
Setting [3] is: FRET-based FAP protease activity assay, recombinant human FAP.

Chain of Human recombinant FAP (Q12884 whole entry): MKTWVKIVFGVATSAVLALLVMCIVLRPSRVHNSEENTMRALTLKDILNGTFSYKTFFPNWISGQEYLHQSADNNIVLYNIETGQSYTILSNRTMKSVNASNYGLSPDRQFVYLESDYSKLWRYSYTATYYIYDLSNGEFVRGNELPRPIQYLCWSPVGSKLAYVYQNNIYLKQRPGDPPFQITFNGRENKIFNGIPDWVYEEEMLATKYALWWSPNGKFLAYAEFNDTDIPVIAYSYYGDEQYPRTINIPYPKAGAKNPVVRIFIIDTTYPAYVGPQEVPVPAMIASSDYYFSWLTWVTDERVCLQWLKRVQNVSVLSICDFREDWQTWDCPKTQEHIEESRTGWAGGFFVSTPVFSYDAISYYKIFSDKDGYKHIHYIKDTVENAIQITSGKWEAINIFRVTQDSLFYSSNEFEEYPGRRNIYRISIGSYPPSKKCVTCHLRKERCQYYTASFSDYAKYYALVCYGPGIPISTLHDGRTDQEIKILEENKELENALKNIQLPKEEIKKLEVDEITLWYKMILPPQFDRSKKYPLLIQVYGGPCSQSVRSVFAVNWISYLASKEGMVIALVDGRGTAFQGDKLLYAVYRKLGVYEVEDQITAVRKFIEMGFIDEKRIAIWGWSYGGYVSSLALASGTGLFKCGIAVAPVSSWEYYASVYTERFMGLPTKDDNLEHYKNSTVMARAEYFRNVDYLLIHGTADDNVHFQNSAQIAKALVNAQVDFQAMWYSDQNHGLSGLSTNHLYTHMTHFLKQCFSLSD
T1 sequence (Q12884 whole entry): as above

Broadly, the IC50 is the point on the concentration scale where inhibition reaches its midpoint. For the compound `CSCC[C@H](NC(C)=O)C(=O)N[C@@H]1CSCc2cccc(c2)CSC[C@@H](C(=O)N[C@@H](CC(=O)O)C(=O)N[C@@H](Cc2c[nH]cn2)C(=O)N[C@@H](Cc2ccccc2)C(=O)N[C@@H](CCCNC(=N)N)C(=O)N[C@@H](CC(=O)O)C(N)=O)NC(=O)[C@H](Cc2ccccc2)NC(=O)[C@H](CCC(=O)O)NC(=O)[C@H]([C@@H](C)O)NC(=O)[C@@H]2CCCN2C(=O)[C@@H]2CCCN2C1=O` [3BP-3175, Ac-Met-[cys(3MeBn)-Pro-Pro-Thr-Glu-Phe-Cys]-Asp-His-Phe-Arg-Asp-NH2] (Ac-M[dC]PPTEFCDHFRD-NH2; linker 2-8 via mXylylene), the IC50 in assay [1] and in assay [2] (setting [3]) was < 10 nM in each case.
Consider `C[C@@H](O)[C@@H]1NC(=O)[C@@H]2CCCN2C(=O)[C@@H]2CCCN2C(=O)[C@@H](NC(=O)Cc2ccncc2)CSCc2cccc(c2)CSC[C@@H](C(N)=O)NC(=O)[C@H](Cc2ccccc2)NC(=O)[C@H](CCC(N)=O)NC1=O` [3BP-3762, 4Pya-[Cys(3MeBn)-Pro-Pro-Thr-Gln-Phe-Cys]-NH2], for which the IC50 was > 1000 nM in assay [1] and 100 to 794 nM in assay [2] (setting [3]).
With `CCCCCC(=O)N[C@H]1CSCc2cc(CSCCNC(=O)CCC(=O)NCCCOCCOCCOCCCNC(=O)[C@H](CO)NC(=O)[C@H](CO)NC(=O)[C@H](CO)NC(=O)CS)cc(c2)CSC[C@@H](C(=O)O)NC(=O)[C@H](Cc2ccccc2)NC(=O)[C@H](CCC(N)=O)NC(=O)[C@H]([C@@H](C)O)NC(=O)[C@@H]2CCCN2C(=O)[C@@H]2CCCN2C1=O` [3BP-4308, Hex-[Cys-(tMeBn(H-SAc-Ser-Ser-Ser-Ttds-AET))-Pro-Pro-Thr-Gln-Phe-Cys]-OH], the IC50 in assay [1] and in assay [2] (FRET-peptide substrate) was 10 to 79.4 nM throughout.
For the compound `CCCCCC(=O)N[C@H]1CSCc2cccc(c2)CSC[C@@H](C(N)=O)NC(=O)[C@H](Cc2ccccc2)NC(=O)[C@H](CCC(=O)O)NC(=O)[C@H](CCCNC(=O)c2cnccn2)NC(=O)[C@@H]2CCCN2C(=O)[C@@H]2CCCN2C1=O` [3BP-3355, Hex-[Cys(3MeBn)-Pro-Pro-Opc-Glu-Phe-Cys]-NH2] (Hexanoyl-CPP[Orn](Pyrazinecarbonyl)EFC-NH2; linker 1-7 via mXylylene), the results for the IC50 in assay [1] and in assay [2] (setting [3]) were > 1000 nM and 100 to 794 nM, respectively.
Turning to “Hex-[Cys(3MeBn)-Pro-Pro-Thr-Glu-Phe-Cys]-Asp-Omp-Arg-NH2 [3BP-3302]”, in assay [1] (competition with 3 nM Cy5-labeled compound, WI-38 fibroblasts, 4° C., 1 hour), the “pIC50 Category (FACS)” value is “A (pIC50 category A stands for pIC50 values >8.0)”. In addition, the “pIC50 Category (activity)” value in assay [2] (setting [3]) is “A (pIC50 category A stands for pIC50 values >8.0)”.
For `C[C@@H](O)[C@@H]1NC(=O)[C@@H]2CCCN2C(=O)[C@@H]2CCCN2C(=O)[C@@H](NC(=O)CCCCCNC(=O)CN2CCN(CC(=O)O)CCN(CC(=O)O)CCN(CC(=O)O)CC2)CSCc2cccc(c2)CSC[C@@H](C(=O)N[C@@H](CC(=O)O)C(=O)N[C@@H](Cc2c[nH]cn2)C(=O)N(C)[C@@H](Cc2ccccc2)C(=O)N[C@@H](CCCNC(=N)N)C(=O)N[C@@H](CC(=O)O)C(N)=O)NC(=O)[C@H](Cc2ccccc2)NC(=O)[C@H](CCC(=O)O)NC1=O` [3BP-3266, DOTA-Ahx-[Cys(3MeBn)-Pro-Pro-Thr-Glu-Phe-Cys]-Asp-His-Nmf-Arg-Asp-NH2] ({DOTA-Ahx}-CPPTEFCDH[NMeF]RD-NH2; linker 1-7 via mXylylene), the concentration for half-maximal inhibition (IC50) in assay [1] and in assay [2] (setting [3]) was 100 to 794 nM in each case.
As for `C=CCCC(=O)N[C@H]1CSCc2cc(CSCCNC(=O)CN3CCN(CC(=O)O)CCN(CC(=O)O)CCN(CC(=O)O)CC3)cc(c2)CSC[C@@H](C(=O)O)NC(=O)[C@H](Cc2ccccc2)NC(=O)[C@H](CCC(N)=O)NC(=O)[C@H]([C@@H](C)O)NC(=O)[C@@H]2CCCN2C(=O)[C@@H]2CCCN2C1=O` [3BP-3914, Peet-[Cys(tMeBn(DOTA-AET))-Pro-Pro-Thr-Gln-Phe-Cys]-OH], the half-inhibitory concentration (IC50) in assay [1] and in assay [2] (FRET-peptide substrate) was 10 to 79.4 nM in each case.
`CSCC[C@@H](NC(C)=O)C(=O)N[C@H]1CSCc2cc(CSCCNC(=O)CN3CCN(CC(=O)O)CCN(CC(=O)O)CCN(CC(=O)O)CC3)cc(c2)CSC[C@@H](C(=O)O)NC(=O)[C@H](Cc2ccccc2)NC(=O)[C@H](CCC(N)=O)NC(=O)[C@H]([C@@H](C)O)NC(=O)[C@@H]2CCCN2C(=O)[C@@H]2CCCN2C1=O` [3BP-3682, Ac-met-[Cys(tMeBn(DOTA-AET))-Pro-Pro-Thr-Gln-Phe-Cys]-OH]: the IC50 in assay [1] and in assay [2] (setting [3]) was 10 to 79.4 nM throughout.
As to `CCCCCC(=O)N[C@H]1CSCc2cccc(c2)CSC[C@@H](C(N)=O)NC(=O)[C@H](Cc2ccccc2)N(C)C(=O)[C@H](CCC(=O)O)NC(=O)[C@H]([C@@H](C)O)NC(=O)[C@@H]2CCCN2C(=O)[C@@H]2CCCN2C1=O` [3BP-3358, Hex-[Cys(3MeBn)-Pro-Pro-Thr-Glu-Nmf-Cys]-NH2] (Hexanoyl-CPPTE[NMeF]C-NH2; linker 1-7 via mXylylene), the figures for the IC50 in assay [1] and in assay [2] (setting [3]) were > 1000 nM and 100 to 794 nM, respectively.
The matching figures for `CCCCCC(=O)N[C@H]1CSCc2cccc(c2)CSC[C@@H](C(N)=O)NC(=O)[C@H](Cc2ccccc2)NC(=O)[C@H](CCC(=O)O)NC(=O)[C@H]([C@@H](C)O)NC(=O)[C@@H]2C[C@@H](F)CN2C(=O)[C@@H]2CCCN2C1=O` [3BP-3352, Hex-[Cys(3MeBn)-Pro-4Tfp-Thr-Glu-Phe-Cys]-NH2] (Hexanoyl-CP[Pro(trans-4-F)]TEFC-NH2; linker 1-7 via mXylylene): 100 to 794 nM and 10 to 79.4 nM.
On to `CCCCNC(=O)N[C@H]1CSCc2cccc(c2)CSC[C@@H](C(=O)N[C@@H](CCCCNC(=O)C(CNCCN)CNCCN)CC(=O)O)NC(=O)[C@H](Cc2ccccc2)NC(=O)[C@H](CCC(N)=O)NC(=O)[C@H]([C@@H](C)O)NC(=O)[C@@H]2CCCN2C(=O)[C@@H]2CCCN2C1=O` [3BP-4589, nBu-CAyl-[Cys(3MeBn)-Pro-Pro-Thr-Gln-Phe-Cys]-Bhk(N4Ac)—OH], for which the IC50 in assay [1] and in assay [2] (FRET-peptide substrate) was < 10 nM in each case.
In the case of `CCCC[C@H](NC(=O)CCC(=O)NCCCOCCOCCOCCCNC(=O)CC[C@H](NC(=O)C(CNCCN)CNCCN)C(=O)O)C(=O)N[C@H]1CSCc2cccc(c2)CSC[C@@H](C(=O)O)NC(=O)[C@H](Cc2ccccc2)NC(=O)[C@H](CCC(N)=O)NC(=O)[C@H]([C@@H](C)O)NC(=O)[C@@H]2CCCN2C(=O)[C@@H]2CCCN2C1=O` [3BP-4245, N4Ac-gGlu-Ttds-Nle-[Cys-(3MeBn)-Pro-Pro-Thr-Gln-Phe-Cys]-OH], the half-maximal inhibitory concentration (IC50) in assay [1] and in assay [2] (FRET-peptide substrate) was 10 to 79.4 nM in each case.
`CCCCCC(=O)N[C@H]1CSCc2cc(CNC(=O)CN3CCN(CC(=O)O)CCN(CC(=O)O)CCN(CC(=O)O)CC3)cc(c2)CSC[C@@H](C(=O)N[C@@H](CC(=O)O)C(N)=O)NC(=O)[C@H](Cc2ccccc2)NC(=O)[C@H](CCC(N)=O)NC(=O)[C@H]([C@@H](C)O)NC(=O)[C@@H]2CCCN2C(=O)[C@@H]2CCCN2C1=O` [3BP-3556, Hex-[Cys(tMeBn(DOTA-NH))-Pro-Pro-Thr-Gln-Phe-Cys]-Asp-NH2] (Hexanoyl-CPPTQFCD-NH2; linker 1-7 via X32): the IC50 in assay [1] and in assay [2] (setting [3]) was 10 to 79.4 nM in each case.
Turning to `CCCCCC(=O)N[C@H]1CSCc2cccc(c2)CSC[C@@H](C(N)=O)NC(=O)[C@H](Cc2ccccc2C(F)(F)F)NC(=O)[C@H](CCC(N)=O)NC(=O)[C@H]([C@@H](C)O)NC(=O)[C@@H]2CCCN2C(=O)[C@@H]2CCCN2C1=O` [3BP-3409, Hex-[Cys(3MeBn)-Pro-Pro-Thr-Gln-Otf-Cys]-NH2], the values for the IC50 in assay [1] and in assay [2] (setting [3]) were 10 to 79.4 nM and < 10 nM, respectively.
Consider `C[C@@H](O)[C@@H]1NC(=O)[C@@H]2CCCN2C(=O)[C@@H]2CCCN2C(=O)[C@@H](NC(=O)C2CCCCC2)CSCc2cc(CSCCNC(=O)CN3CCN(CC(=O)O)CCN(CC(=O)O)CCN(CC(=O)O)CC3)cc(c2)CSC[C@@H](C(=O)O)NC(=O)[C@H](Cc2ccccc2)NC(=O)[C@H](CCC(N)=O)NC1=O` [3BP-3908, Chex-[Cys(tMeBn(DOTA-AET))-Pro-Pro-Thr-Gln-Phe-Cys]-OH], for which the IC50 in assay [1] and in assay [2] (FRET-peptide substrate) was 100 to 794 nM each time.
Consider `CC(=O)N[C@@H](CCO)C(=O)N[C@H]1CSCc2cccc(c2)CSC[C@@H](C(N)=O)NC(=O)[C@H](Cc2ccccc2)NC(=O)[C@H](CCC(N)=O)NC(=O)[C@H]([C@@H](C)O)NC(=O)[C@@H]2CCCN2C(=O)[C@@H]2CCCN2C1=O` [3BP-3763, Ac-Hse-[Cys(3MeBn)-Pro-Pro-Thr-Gln-Phe-Cys]-NH2], for which the results for the IC50 in assay [1] and in assay [2] (setting [3]) were > 1000 nM and 100 to 794 nM, respectively.
In the case of `CCCCCC(=O)N[C@H]1CSCc2cc(CSCCNC(=O)CCC(=O)NCCCOCCOCCOCCCNC(=O)CCC(=O)NCCCOCCOCCOCCCNC(=O)CCC(=O)NCCCOCCOCCOCCCNC(=O)CCC(=O)NCCCOCCOCCOCCCNC(=O)CCCC[C@@H]3SC[C@@H]4NC(=O)N[C@@H]43)cc(c2)CSC[C@@H](C(=O)O)NC(=O)[C@H](Cc2ccccc2)NC(=O)[C@H](CCC(N)=O)NC(=O)[C@H]([C@@H](C)O)NC(=O)[C@@H]2CCCN2C(=O)[C@@H]2CCCN2C1=O` [3BP-4170, Hex-[Cys-(tMeBn(Bio-Ttds-Ttds-Ttds-Ttds-AET))-Pro-Pro-Thr-Gln-Phe-Cys]-OH], the concentration for half-maximal inhibition (IC50) in assay [1] and in assay [2] (FRET-peptide substrate) was 10 to 79.4 nM throughout.
For the compound `CCCCCC(=O)N[C@H]1CSCc2cccc(c2)CSC[C@@H](C(N)=O)NC(=O)[C@H](Cc2ccccc2)NC(=O)[C@H](CCC(=O)O)N(C)C(=O)[C@H]([C@@H](C)O)NC(=O)[C@@H]2CCCN2C(=O)[C@@H]2CCCN2C1=O` [3BP-3357, Hex-[Cys(3MeBn)-Pro-Pro-Thr-Nme-Phe-Cys]-NH2] (Hexanoyl-CPPT[NMeE]FC-NH2; linker 1-7 via mXylylene), the IC50 in assay [1] and in assay [2] (setting [3]) was > 1000 nM each time.
